Source: PubChem BioAssay (NCI)
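Cells were grown in 96-well plates and exposed to each compound for 48 hours at five concentrations; endpoints were interpolated linearly between bracketing concentrations, or set to the highest concentration if not reached. TGI denotes the concentration required for complete inhibition of growth.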

Tests used:
Assay in all cases: NCI anticancer screen, dose series, 48 h
786-0 renal = system: 786-0 renal
A498 renal = system: A498 renal
A549 NSCLC = system: A549 NSCLC
ACHN renal = system: ACHN renal
BT-549 breast = system: BT-549 breast
CAKI-1 renal = system: CAKI-1 renal
CCRF-CEM leukemia = system: CCRF-CEM leukemia
COLO 205 colon = system: COLO 205 colon
DU-145 prostate = system: DU-145 prostate
EKVX NSCLC = system: EKVX NSCLC
HCT-116 colon = system: HCT-116 colon
HCT-15 colon = system: HCT-15 colon
HL-60(TB) leukemia = system: HL-60(TB) leukemia
HOP-62 NSCLC = system: HOP-62 NSCLC
HOP-92 NSCLC = system: HOP-92 NSCLC
HS 578T breast = system: HS 578T breast
HT29 colon = system: HT29 colon
IGROV1 ovarian = system: IGROV1 ovarian
K-562 leukemia = system: K-562 leukemia
KM12 colon = system: KM12 colon
M14 melanoma = system: M14 melanoma
MALME-3M melanoma = system: MALME-3M melanoma
MCF7 breast = system: MCF7 breast
MDA-MB-231 breast = system: MDA-MB-231 breast
MDA-MB-435 = system: MDA-MB-435
MDA-N = system: MDA-N
MOLT-4 leukemia = system: MOLT-4 leukemia
NCI-H226 lung = system: NCI-H226 lung
NCI-H23 lung = system: NCI-H23 lung
NCI-H460 lung = system: NCI-H460 lung
NCI-H522 lung = system: NCI-H522 lung
NCI/ADR-RES ovarian = system: NCI/ADR-RES ovarian
OVCAR-3 ovarian = system: OVCAR-3 ovarian
OVCAR-4 ovarian = system: OVCAR-4 ovarian
OVCAR-5 ovarian = system: OVCAR-5 ovarian
OVCAR-8 ovarian = system: OVCAR-8 ovarian
PC-3 prostate = system: PC-3 prostate
RPMI-8226 leukemia = system: RPMI-8226 leukemia
RXF 393 renal = system: RXF 393 renal
SF-268 CNS = system: SF-268 CNS
SF-295 CNS = system: SF-295 CNS
SF-539 CNS = system: SF-539 CNS
SK-MEL-2 melanoma = system: SK-MEL-2 melanoma
SK-MEL-28 melanoma = system: SK-MEL-28 melanoma
SK-MEL-5 melanoma = system: SK-MEL-5 melanoma
SK-OV-3 ovarian = system: SK-OV-3 ovarian
SN12C renal = system: SN12C renal
SNB-19 CNS = system: SNB-19 CNS
SNB-75 CNS = system: SNB-75 CNS
SR leukemia = system: SR leukemia
SW-620 colon = system: SW-620 colon
T-47D breast = system: T-47D breast
TK-10 renal = system: TK-10 renal
U251 CNS = system: U251 CNS
UACC-257 melanoma = system: UACC-257 melanoma
UACC-62 melanoma = system: UACC-62 melanoma
UO-31 renal = system: UO-31 renal

CC(C)c1cc(C(F)(F)F)nc(NNc2nc(C(C)C)cc(C(F)(F)F)n2)n1
TGI (786-0 renal): > 100 µM
TGI (A498 renal): > 100 µM
TGI (A549 NSCLC): > 100 µM
TGI (ACHN renal): > 100 µM
TGI (BT-549 breast): > 100 µM
TGI (CAKI-1 renal): > 100 µM
TGI (CCRF-CEM leukemia): > 100 µM
TGI (COLO 205 colon): > 100 µM
TGI (DU-145 prostate): > 100 µM
TGI (EKVX NSCLC): > 100 µM
TGI (HCT-116 colon): > 100 µM
TGI (HCT-15 colon): > 100 µM
TGI (HL-60(TB) leukemia): > 100 µM
TGI (HOP-62 NSCLC): 86.4 µM
TGI (HOP-92 NSCLC): > 100 µM
TGI (HS 578T breast): > 100 µM
TGI (HT29 colon): > 100 µM
TGI (IGROV1 ovarian): > 100 µM
TGI (K-562 leukemia): > 100 µM
TGI (KM12 colon): > 100 µM
TGI (M14 melanoma): > 100 µM
TGI (MALME-3M melanoma): > 100 µM
TGI (MCF7 breast): > 100 µM
TGI (MDA-MB-231 breast): > 100 µM
TGI (MDA-MB-435): > 100 µM
TGI (MDA-N): > 100 µM
TGI (MOLT-4 leukemia): > 100 µM
TGI (NCI-H226 lung): > 100 µM
TGI (NCI-H23 lung): > 100 µM
TGI (NCI-H460 lung): > 100 µM
TGI (NCI-H522 lung): > 100 µM
TGI (NCI/ADR-RES ovarian): > 100 µM
TGI (OVCAR-3 ovarian): 85.5 µM
TGI (OVCAR-4 ovarian): > 100 µM
TGI (OVCAR-5 ovarian): > 100 µM
TGI (OVCAR-8 ovarian): > 100 µM
TGI (PC-3 prostate): > 100 µM
TGI (RPMI-8226 leukemia): > 100 µM
TGI (RXF 393 renal): > 100 µM
TGI (SF-268 CNS): > 100 µM
TGI (SF-295 CNS): > 100 µM
TGI (SF-539 CNS): > 100 µM
TGI (SK-MEL-2 melanoma): > 100 µM
TGI (SK-MEL-28 melanoma): > 100 µM
TGI (SK-MEL-5 melanoma): > 100 µM
TGI (SK-OV-3 ovarian): > 100 µM
TGI (SN12C renal): > 100 µM
TGI (SNB-19 CNS): > 100 µM
TGI (SNB-75 CNS): 95.8 µM
TGI (SR leukemia): > 100 µM
TGI (SW-620 colon): > 100 µM
TGI (T-47D breast): > 100 µM
TGI (TK-10 renal): 56.1 µM
TGI (U251 CNS): > 100 µM
TGI (UACC-257 melanoma): > 100 µM
TGI (UACC-62 melanoma): > 100 µM
TGI (UO-31 renal): > 100 µM
